Cell viability and Kd data for three compounds are collected here from patent EP4269424A1, “NOVEL ANTIVIRAL COMPOUNDS AND USE THEREOF” (priority 2022, dated 2023).

No end group written: not given here.

One data set concerns the target G3BP1. It is filed as binding, human.

As for `CC[C@H](C)[C@H](NC(=O)CNC(=O)[C@H](CO)NC(=O)[C@H](C)NC(=O)[C@H](CC(C)C)NC(=O)[C@H](C)NC(=O)[C@H](CC(=O)O)NC(=O)[C@@H](NC(=O)[C@H](CCC(=O)O)NC(=O)[C@H](Cc1c[nH]cn1)NC(=O)[C@H](CCC(=O)O)NC(=O)[C@H](CC(=O)O)NC(=O)[C@H](Cc1ccccc1)NC(=O)[C@H](CC(=O)O)NC(=O)CNC(=O)[C@H](Cc1ccccc1)NC(=O)[C@@H](NC(=O)[C@H](CC(C)C)NC(=O)[C@H](CCCNC(=N)N)NC(=O)[C@H](CCCNC(=N)N)NC(=O)[C@H](CCCNC(=N)N)NC(=O)[C@H](CCC(N)=O)NC(=O)[C@H](CCCNC(=N)N)NC(=O)[C@H](CCCNC(=N)N)NC(=O)[C@H](CCCCN)NC(=O)[C@H](CCCCN)NC(=O)[C@H](CCCNC(=N)N)NC(=O)CNC(=O)[C@@H](N)Cc1ccc(O)cc1)[C@@H](C)O)C(C)C)C(=O)N[C@H](C(=O)N[C@@H](Cc1ccccc1)C(=O)NCC(=O)N[C@@H](CC(=O)O)C(=O)N[C@@H](Cc1ccccc1)C(=O)N[C@@H](CC(=O)O)C(=O)N[C@@H](CC(=O)O)C(=O)O)[C@@H](C)O` [G3BPi WT], the cell viability entry in the data set on Vero E6 cells is on record as “not affected”. `CC[C@H](C)[C@H](NC(=O)CNC(=O)[C@H](CO)NC(=O)[C@H](C)NC(=O)[C@H](CC(C)C)NC(=O)[C@H](C)NC(=O)[C@H](CCC(=O)O)NC(=O)[C@H](Cc1c[nH]cn1)NC(=O)[C@H](CCC(=O)O)NC(=O)[C@H](CC(=O)O)NC(=O)[C@H](Cc1ccccc1)NC(=O)[C@H](CC(=O)O)NC(=O)CNC(=O)[C@H](Cc1ccccc1)NC(=O)[C@@H](NC(=O)[C@@H](N)CC(C)C)[C@@H](C)O)C(=O)N[C@H](C(=O)N[C@@H](Cc1ccccc1)C(=O)NCC(=O)N[C@@H](CC(=O)O)C(=O)N[C@@H](Cc1ccccc1)C(=O)N[C@@H](CC(=O)O)C(=O)N[C@@H](CC(=O)O)C(=O)N[C@@H](Cc1c[nH]c2ccccc12)C(=O)O)[C@@H](C)O` [G3BPi spacer2]: the Kd at G3BP1 came to 4.4 µM.

“LTFGDFTGSTGSTGSTGITFGDFDDW [G3BPi spacer3]” had a Kd at G3BP1 of 2.4 µM.
